Results reported in patent publication US20080176255A1, “Mold detection composition and methods” (priority 2007, published 2008).
Where a name gives a salt, the structure may show the parent alone.

Assay: Solubility in distilled water
Format: physicochemical
Excerpt: In one embodiment, the compositions described herein may further comprise a solvent; a gelling agent; and a diluent.

solubility (at 25° C.): 25 mg/mL
solubility (at 95° C.): 300 mg/mL
SMILES: O=S(=O)(O)c1ccccc1C=Cc1ccc(-c2ccc(C=Cc3ccccc3S(=O)(=O)O)cc2)cc1 [BBD, 2,2′-([1,1′-Biphenyl]-4,4′-diyldi-2,1-ethenediyl)bis-benzenesulfonic acid disodium salt]
